Reference: article PMC11450120, “One-pot synthesis, characterization and antiviral properties of new benzenesulfonamide-based spirothiazolidinones” (Molecular Diversity, 2024)
pEC50: −log10 of the molar value. Read-outs that look alike come from different tables or passages of the source.

Key:
[1] = system: Madin-Darby canine kidney (MDCK) cells; conditions: for cytotoxicity at the highest concentration tested: at 100 μM
[2] = system: influenza A/H1N1 (A/Virginia/ATCC3/2009) virus; assay: Influenza virus CPE reduction assay in MDCK cells, A/H1N1; type: cell-based; conditions: for pEC50: Influenza A virus; for EC50: BXA concentration unit nM
in vitro = conditions: dog
[3] = system: influenza A/H3N2 (A/HK/7/87) virus; assay: Influenza virus CPE reduction assay in MDCK cells, A/H3N2; type: cell-based; conditions: for pEC50: Influenza A virus, H3N2, 96 h, 4 days at 35 °C; for EC50: BXA concentration unit nM
[4] = system: influenza B virus (B/Ned/537/05); assay: Influenza virus CPE reduction assay in MDCK cells, influenza B; type: cell-based; conditions: read-out: Antiviral EC50 Influenza B Microscopy; for pEC50: Influenza B virus, 96 h, CPE by microscopic scoring, 4 days at 35 °C
[5] = 96 h, CPE by microscopic scoring, 4 days at 35 °C, read-out: Antiviral EC50 Influenza A/H1N1 Microscopy
[6] = 96 h, MTS cell viability assay, 4 days at 35 °C, read-out: Antiviral EC50 Influenza A/H1N1 MTS
[7] = CPE by microscopic scoring, read-out: Antiviral EC50 Influenza A/H3N2 Microscopy
[8] = MTS cell viability assay, read-out: Antiviral EC50 Influenza A/H3N2 MTS
[9] = read-out: EC50 against influenza A/H1N1 virus (range over microscopy and MTS)

SMILES | Cytotoxicity MCC (minimal cytotoxic concentration) ([1]; dog) | pEC50 [2, 5] | pEC50 [2, 6] | CC50 (in vitro) | pEC50 [3, 7] | pEC50 [3, 8] | melting point | pEC50 [4] | cytotoxicity at the highest concentration tested [1] | activity against influenza A/H1N1 virus (in words) [2] | pEC50 [2, 9] | CC50 [1] | Cytotoxicity MCC (minimal cytotoxic concentration) [1] | EC50 ([2]; MTS assay, read-out: Antiviral EC50 Influenza A/H1N1 MTS) | EC50 ([2]; microscopic scoring, read-out: Antiviral EC50 Influenza A/H1N1 Microscopy) | EC50 ([3]; MTS assay, read-out: Antiviral EC50 Influenza A/H3N2 MTS) | EC50 ([3]; microscopic scoring, read-out: Antiviral EC50 Influenza A/H3N2 Microscopy) | EC50 ([4]; microscopic scoring, BXA concentration unit nM)
COc1cc(S(N)(=O)=O)ccc1C(=O)NN1C(=O)C(C)SC12CCC(c1ccccc1)CC2 (stereo not drawn) [3 h, 2-Methoxy-N-(2-methyl-3-oxo-8-phenyl-1-thia-4-azaspiro[4.5]decan-4-yl)-4-sulfamoylbenzamide] | 100 µM | < 4.00 | < 4.00 | > 100 µM | < 4.00 | < 4.00 | 290 to 292 °C | < 4.00 | – | – | – | – | – | – | – | – | – | –
COc1cc(S(N)(=O)=O)ccc1C(=O)NN1C(=O)C(C)SC12CCC(C(C)(C)C)CC2 (stereo not drawn) [Compound 3e, 2-Methoxy-N-(2-methyl-3-oxo-8-tert-butyl-1-thia-4-azaspiro[4.5]decan-4-yl)-4-sulfamoylbenzamide] | > 100 µM | 4.35 | 4.46 | > 100 µM | < 4.00 | 4.17 | 301 to 304 °C | < 4.00 | no cytotoxicity | weak activity | 4.35 to 4.46 | – | – | – | – | – | – | –
NC(=O)c1ncn([C@@H]2O[C@H](CO)[C@@H](O)[C@H]2O)n1 [Ribavirin, reference compound] | – | 4.35 | 4.60 | > 100 µM | 4.40 | 4.59 | – | 5.00 | – | – | – | – | – | – | – | – | – | –
COc1cc(S(N)(=O)=O)ccc1C(=O)NN1C(=O)C(C)SC12CCC(C)CC2 (stereo not drawn) [Compound 3b, 2-Methoxy-N-(2,8-dimethyl-3-oxo-1-thia-4-azaspiro[4.5]decan-4-yl)-4-sulfamoylbenzamide] | > 100 µM | < 4.00 | < 4.00 | > 100 µM | < 4.00 | < 4.00 | 258 to 261 °C | < 4.00 | – | – | – | – | – | – | – | – | – | –
O=C1c2c(O)c(=O)ccn2N([C@@H]2c3ccccc3SCc3c2ccc(F)c3F)[C@@H]2COCCN12 [BXA, baloxavir acid, reference compound] | – | – | – | – | – | – | – | – | – | – | – | > 0.02 µM | > 0.02 µM | 1.5 nM | 1.8 nM | 1.7 nM | 2 nM | 8.3 nM
COc1cc(S(N)(=O)=O)ccc1C(=O)NN1C(=O)C(C)SC12CCC(C#N)(c1ccccc1)CC2 (stereo not drawn) [Compound 3i, 2-Methoxy-N-(8-cyano-2-methyl-3-oxo-8-phenyl-1-thia-4-azaspiro[4.5]decan-4-yl)-4-sulfamoylbenzamide] | > 100 µM | < 4.00 | 4.13 | > 100 µM | < 4.00 | < 4.00 | 265 to 270 °C | < 4.00 | – | – | – | – | – | – | – | – | – | –
CCC(C)(C)C1CCC2(CC1)SC(C)C(=O)N2NC(=O)c1ccc(S(N)(=O)=O)cc1OC (stereo not drawn) [Compound 3f, 2-Methoxy-N-(2-methyl-3-oxo-8-tert-pentyl-1-thia-4-azaspiro[4.5]decan-4-yl)-4-sulfamoylbenzamide] | > 100 µM | < 4.00 | < 4.00 | > 100 µM | < 4.00 | < 4.00 | 290 to 295 °C | < 4.00 | – | – | – | – | – | – | – | – | – | –
CCC1CCC2(CC1)SC(C)C(=O)N2NC(=O)c1ccc(S(N)(=O)=O)cc1OC (stereo not drawn) [Compound 3c, 2-Methoxy-N-(8-ethyl-2-methyl-3-oxo-1-thia-4-azaspiro[4.5]decan-4-yl)-4-sulfamoylbenzamide] | 100 µM | < 4.00 | 4.10 | > 100 µM | < 4.00 | < 4.00 | 270 to 272 °C | < 4.00 | – | – | – | – | – | – | – | – | – | –
COc1cc(S(N)(=O)=O)ccc1C(=O)NN1C(=O)C(C)SC12CCCC(C)C2 (stereo not drawn) [Compound 3a, 2-Methoxy-N-(2,7-dimethyl-3-oxo-1-thia-4-azaspiro[4.5]decan-4-yl)-4-sulfamoylbenzamide] | > 100 µM | < 4.00 | 4.12 | > 100 µM | < 4.00 | 4.19 | 261 to 264 °C | < 4.00 | – | – | – | – | – | – | – | – | – | –
COc1cc(S(N)(=O)=O)ccc1C(=O)NN1C(=O)C(C)SC12CCC(NC(C)=O)CC2 (stereo not drawn) [Compound 3j, 2-Methoxy-N-(8-acetamido-2-methyl-3-oxo-1-thia-4-azaspiro[4.5]decan-4-yl)-4-sulfamoylbenzamide] | > 100 µM | < 4.00 | < 4.00 | > 100 µM | < 4.00 | < 4.00 | – | < 4.00 | – | – | – | – | – | – | – | – | – | –
COc1cc(S(N)(=O)=O)ccc1C(=O)NN1C(=O)C(C)SC12CCC(C(F)(F)F)CC2 (stereo not drawn) [3 g, 2-Methoxy-N-(2-methyl-3-oxo-1-thia-8-trifluoromethyl-4-azaspiro[4.5]decan-4-yl)-4-sulfamoylbenzamide] | 100 µM | < 4.00 | < 4.00 | > 100 µM | < 4.00 | < 4.00 | 210 to 214 °C | < 4.00 | – | – | – | – | – | – | – | – | – | –
CCCC1CCC2(CC1)SC(C)C(=O)N2NC(=O)c1ccc(S(N)(=O)=O)cc1OC (stereo not drawn) [Compound 3d, 2-Methoxy-N-(2-methyl-3-oxo-8-propyl-1-thia-4-azaspiro[4.5]decan-4-yl)-4-sulfamoylbenzamide] | 100 µM | 4.35 | 4.41 | > 100 µM | < 4.00 | < 4.00 | 274 to 276 °C | < 4.00 | no cytotoxicity | weak activity | 4.35 to 4.46 | – | – | – | – | – | – | –
CC(=O)N[C@H]1[C@H]([C@H](O)[C@H](O)CO)OC(C(=O)O)=C[C@@H]1N=C(N)N [Zanamivir, reference compound] | > 100 µM | < 4.00 | < 4.00 | > 100 µM | > 6.10 | > 6.10 | – | > 6.10 | – | – | – | – | – | – | – | – | – | –
